Each structure is given as a SMILES string.

This experiment concerns ARE in Acinetobacter WH405. In kind it is cell-based, Acinetobacter strain WH405 (derivative of strain ADP1). Particulars: hydrocarbon at 5 and 50 mM, WH405 in LB, 37° C. overnight. The procedure: Acinetobacter strain WH405, an ARE::lacZ derivative of strain ADP1 (Ratajczak et al 1998), was scraped from an overnight plate into LB and diluted to OD600 0.07 (the cells can also be from an overnight culture, as long as cells are diluted in fresh LB). Alkane and alkene induction of the ARE was tested by adding a number of alkenes at 5 and 50 mM to culture tubes, followed by addition of the diluted WH405 solution into tubes (5 mL). Tubes were incubated in a 37° C. shaker overnight. The β-galactosidase activity assay developed by Miller was used to determine the level of induction by the different hydrocarbon from the overnight cultures.

`C=CCCCCCCCCCCCCCCCCC` [1-nonadecene]: the “induction of the ARE (β-galactosidase activity, Miller assay)” value (“induction of the ARE” below) is on record as “induced”.

`CCCCCCCC/C=C\CCCCCCCCCCC` [9-cis-heneicosene]: the “induction of the ARE” value is “induced”. Under `CCCCCCCCCCCCCCCC` [hexadecane] stands “induced”; under `C=CCCCCCCCCCCCCCC` [1-hexadecene], “induced”. Turning to `C=CCCCCCCCCCCCCCCC` [1-heptadecene], the “induction of the ARE” value is listed as “induced”.

Turning to `CCCCCC` [hexane], the “induction of the ARE” value was “not”.

Turning to `CCCCCCCC` [octane], the “induction of the ARE” value is given as “induces”. Regarding `CCCCCCCC/C=C\CCCCCCCCCCCCC` [9-cis tricosene], the “induction of the ARE” value is on record as “induced”.

Turning to `C=CCCCCCCCCCCCCCCCC` [1-octadecene], the “induction of the ARE” value was “induced”.

Turning to `C=CCCCCCCCCCCCCCCCCCC` [1-eicosene], the “induction of the ARE” value is recorded as “induced”. In the case of `CCCCCCCCCC` [decane] it was “induced”.

Source of the values: US20080293060A1, “Methods and Compositions for Identification of Hydrocarbon Response, Transport and Biosynthesis Genes” (priority 2007, published 2008).
